Legend:
[1] = target: HDAC-1 (Homo sapiens, UniProt Q13547); assay: HDAC inhibitory activity assay with HDAC-1 (fluorophore/quencher peptide substrate); format: biochemical; details: enzyme/compound mix incubated at room temperature for 2 hours; reaction about 45 minutes; fluorescence read
Experimental: (§1) HDAC inhibitory activity of the compound of Example 1 was measured by an assay in which HDAC-1 or -3 were used as a target molecule. The test compound was suspended in and titrated in DMSO. It was then spotted into a 384-well test plate. The enzyme, HDAC-1 or -3, was diluted in assay buffer containing 25 mM Tris-HCl (pH 8.0), 137 mM NaCl, 2.7 mM KCl, and 0.01% Tween-20 and added to the pre-spotted compound. The enzyme/compound mix was incubated at room temperature for 2 hours. The peptide substrate containing a fluorophore/quencher pair was diluted in the same assay buffer and added to the compound/enzyme mix initiating the reaction. The reaction incubated at room temperature for about 45 minutes. A concentrated developer solution was diluted in the assay buffer, and added to the reaction. The reaction was incubated at room temperature for about 15 minutes and relative fluorescence was read on an instrument reader.

[2] = target: HDAC-3 (Homo sapiens, UniProt O15379); assay: HDAC inhibitory activity assay with HDAC-3 (fluorophore/quencher peptide substrate); format: biochemical; details: enzyme/compound mix incubated at room temperature for 2 hours; reaction about 45 minutes; fluorescence read
Sequence of HDAC-3 (O15379 whole entry, species assumed): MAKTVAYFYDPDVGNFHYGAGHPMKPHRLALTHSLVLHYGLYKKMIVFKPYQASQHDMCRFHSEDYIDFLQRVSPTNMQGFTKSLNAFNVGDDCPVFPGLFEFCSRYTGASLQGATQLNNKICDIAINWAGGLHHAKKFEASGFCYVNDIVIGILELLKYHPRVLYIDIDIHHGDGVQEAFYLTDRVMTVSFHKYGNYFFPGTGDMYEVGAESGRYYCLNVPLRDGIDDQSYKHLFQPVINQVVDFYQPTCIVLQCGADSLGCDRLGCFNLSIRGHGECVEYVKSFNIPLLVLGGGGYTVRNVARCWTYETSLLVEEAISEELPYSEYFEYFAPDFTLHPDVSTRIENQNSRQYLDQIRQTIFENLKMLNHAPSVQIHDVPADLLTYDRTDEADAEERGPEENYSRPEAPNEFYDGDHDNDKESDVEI
Sequence of HDAC-3 (Q9Y618 395-489 partner limits assumed, species assumed): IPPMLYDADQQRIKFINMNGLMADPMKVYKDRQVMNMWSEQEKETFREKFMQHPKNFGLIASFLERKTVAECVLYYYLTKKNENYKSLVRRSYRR
Experimental: as §1

Sequence of HDAC-1 (Q13547 whole entry, species assumed): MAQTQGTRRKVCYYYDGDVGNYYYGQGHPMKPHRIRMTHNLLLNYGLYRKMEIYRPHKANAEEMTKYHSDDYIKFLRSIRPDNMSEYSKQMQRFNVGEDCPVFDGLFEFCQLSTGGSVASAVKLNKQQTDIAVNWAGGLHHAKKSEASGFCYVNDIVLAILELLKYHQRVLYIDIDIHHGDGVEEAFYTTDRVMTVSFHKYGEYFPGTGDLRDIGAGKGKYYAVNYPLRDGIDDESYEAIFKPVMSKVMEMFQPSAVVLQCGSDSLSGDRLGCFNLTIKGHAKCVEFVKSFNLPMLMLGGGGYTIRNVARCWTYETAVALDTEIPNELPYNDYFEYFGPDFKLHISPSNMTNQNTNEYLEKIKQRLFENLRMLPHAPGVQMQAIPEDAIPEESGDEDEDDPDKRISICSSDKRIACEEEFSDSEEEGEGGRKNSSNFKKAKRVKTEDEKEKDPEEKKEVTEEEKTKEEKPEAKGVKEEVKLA

SMILES	IC50 [1] [µM]	IC50 [2] [µM]
CC(C(=O)Nc1ccc(C(=O)Nc2ccccc2N)cc1)N1CCCC1 (centres unmarked) [Example 1, N-(2-Amino-phenyl)-4-(2-pyrrolidin-1-yl-propionylamino)-benzamide]	0.201	–
CC(C(=O)Nc1ccc(C(=O)Nc2cc(-c3ccc(F)cc3)ccc2N)cc1)N1CCCC1 (centres unmarked) [Example 2, N-(2-Amino-5-(4-fluorophenyl)phenyl)-4-(2-(pyrrolidin-1-yl)propanamido)benzamide]	0.003	3.11
CC(C(=O)Nc1ccc(C(=O)Nc2cc(-c3cccs3)ccc2N)cc1)N1CCCC1 (centres unmarked) [Example 3, N-(2-Amino-5-(thiophen-2-yl)phenyl)-4-(2-(pyrrolidin-1-yl)propanamido)benzamide]	0.003	2.1
CC(C(=O)Nc1ccc(C(=O)Nc2ccccc2N)cc1)N1CCCC1=O (centres unmarked) [Example 4, N-(2-Aminophenyl)-4-(2-(2-oxopyrrolidin-1-yl)propanamido)benzamide]	0.0915	0.3
CC(C(=O)Nc1ccc(C(=O)Nc2cc(-c3cccs3)ccc2N)cc1)N1CCCC1=O (centres unmarked) [Example 5, N-(2-Amino-5-(thiophen-2-yl)phenyl)-4-(2-(2-oxopyrrolidin-1-yl)propanamido)benzamide]	0.0016	1.04
Nc1ccccc1NC(=O)c1ccc(NC(=O)C(c2ccccc2)N2CCOCC2)cc1 (centres unmarked) [Example 6, N-(2-aminophenyl)-4-(2-morpholino-2-phenylacetamido)benzamide]	0.0253	0.144
CC(C(=O)Nc1ccc(C(=O)Nc2cc(-c3ccc(F)cc3)ccc2N)cc1)N1CCCC1=O (centres unmarked) [Example 7, N-(2-Amino-5-(4-fluorophenyl)phenyl)-4-(2-(2-oxopyrrolidin-1-yl)propanamido)benzamide]	0.0027	1.54
CC(C(=O)Nc1ccc(C(=O)Nc2cc(-c3cccs3)ccc2N)cc1)N1CCOCC1 (centres unmarked) [Example 8, N-(2-Amino-5-(thiophen-2-yl)phenyl)-4-(2-morpholinopropanamido)benzamide]	0.0028	1.35
CC(C(=O)Nc1ccc(C(=O)Nc2cc(-c3ccc(F)cc3)ccc2N)cc1)N1CCOCC1 (centres unmarked) [Example 9]	0.0047	3.06
CC(C)(C(=O)Nc1ccc(C(=O)Nc2cc(-c3ccc(F)cc3)ccc2N)cc1)N1CCOCC1 [Example 10, N-(2-Amino-5-(4-fluorophenyl)phenyl)-4-(2-methyl-2-morpholinopropanamido)benzamide]	0.0041	3.63
CC(C(=O)Nc1ccc(C(=O)Nc2cc(-c3cccs3)ccc2N)cc1F)N1CCCC1=O (centres unmarked) [Example 11, N-(2-Amino-5-(thiophen-2-yl)phenyl)-3-fluoro-4-(2-(2-oxopyrrolidin-1-yl)propanamido)benzamide]	0.0019	1.04
CC(C(=O)Nc1ccc(C(=O)Nc2cc(-c3ccc(Cl)s3)ccc2N)cc1)N1CCCC1=O (centres unmarked) [Example 12, N-(2-Amino-5-(5-chlorothiophen-2-yl)phenyl)-4-(2-(2-oxopyrrolidin-1-yl)propanamido)benzamide]	0.0071	2.23

From US8431610B2, “Alkanoylamino benzamide aniline HDAC inhibitor compounds” (Gilead Sciences, Inc., priority 2009, dated 2013)
